Where a name gives a salt, the structure may show the parent alone. Read-outs that look alike come from different tables or passages of the source.
Experiments:
α1A-adrenoceptor = target: T1, α1A-adrenoceptor (Rattus norvegicus, UniProt P43140); experiment: Receptor binding assay, [3H]prazosin, rat submaxillary membranes; conditions: rat submaxillary membranes, 0.5 nM [3H]prazosin; read-out: RBA (Ki nM) α1A
T1 construct: from tissue; host or cells: rat submaxillary gland membranes
T1 sequence (P43140 1-466): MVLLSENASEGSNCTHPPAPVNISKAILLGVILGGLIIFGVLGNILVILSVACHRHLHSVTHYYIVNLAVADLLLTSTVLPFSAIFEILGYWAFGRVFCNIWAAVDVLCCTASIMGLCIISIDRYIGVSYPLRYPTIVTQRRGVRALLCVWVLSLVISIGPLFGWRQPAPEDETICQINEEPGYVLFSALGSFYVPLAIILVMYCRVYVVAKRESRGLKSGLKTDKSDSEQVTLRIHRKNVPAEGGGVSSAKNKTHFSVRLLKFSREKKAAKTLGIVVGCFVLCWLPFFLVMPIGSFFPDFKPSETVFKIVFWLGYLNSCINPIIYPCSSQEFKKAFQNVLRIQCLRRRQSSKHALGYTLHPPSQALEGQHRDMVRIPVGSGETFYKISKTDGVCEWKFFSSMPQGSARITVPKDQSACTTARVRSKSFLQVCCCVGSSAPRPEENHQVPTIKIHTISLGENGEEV
Experimental: (§1) Receptor binding assays, (RBA's) were performed for native α1-adrenoceptors. Rat submaxillary and rat liver membrane preparations were used to assess the affinity for α1A and α1B subtypes, respectively. Aliquots of membrane protein ([…]) were incubated in a final volume of […] assay buffer (50 mM Tris, 0.5 mM EDTA at pH 7.4) with 0.5 nM [^3H] prazosin for 60 mins at 28 ° C. Reaction was stopped by rapid filtration on Millipore filters. Filters were dried and bound radioactivity counted. Non-specific binding was determined in the presence of 0.3 mM prazosin.

α1B-adrenoceptor = target: T2, α1B-adrenoceptor (Rattus norvegicus, UniProt P15823); experiment: Receptor binding assay, [3H]prazosin, rat liver membranes; conditions: rat liver membranes, 0.5 nM [3H]prazosin; read-out: RBA (Ki nM) α1B
T2 construct: from tissue; host or cells: rat liver membranes
T2 sequence (P15823 1-515): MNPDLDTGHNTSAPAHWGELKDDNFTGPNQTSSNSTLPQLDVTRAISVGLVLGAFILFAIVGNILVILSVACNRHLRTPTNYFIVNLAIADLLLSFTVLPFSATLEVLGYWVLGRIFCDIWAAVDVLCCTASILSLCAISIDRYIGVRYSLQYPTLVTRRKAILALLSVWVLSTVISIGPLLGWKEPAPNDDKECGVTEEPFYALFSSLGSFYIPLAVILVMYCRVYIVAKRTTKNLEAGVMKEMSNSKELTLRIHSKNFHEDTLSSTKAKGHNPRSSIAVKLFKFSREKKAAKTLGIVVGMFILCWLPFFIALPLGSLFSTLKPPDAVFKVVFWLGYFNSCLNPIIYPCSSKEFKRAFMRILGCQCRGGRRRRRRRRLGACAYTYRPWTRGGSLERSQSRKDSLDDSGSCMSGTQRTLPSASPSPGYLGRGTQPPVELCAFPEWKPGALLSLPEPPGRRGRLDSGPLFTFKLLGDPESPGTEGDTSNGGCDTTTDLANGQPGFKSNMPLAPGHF
Experimental: as §1

[1] = target: T3, α1A-adrenoceptor (prostate) (Rattus norvegicus, UniProt P43140); experiment: In vitro functional assay, phenylephrine-induced contraction of isolated prostate; format: cell-based
T3 construct: Aorta, prostate and spleen tissues were isolated from urethane anaesthetized (1.5 gm/kg) male wistar rats; from tissue; host or cells: isolated prostate of male Wistar rats
T3 sequence (P43140 1-466): T1 sequence (P43140 1-466)
Excerpt: (§2) In order to study selectivity of action of the present compounds towards different α-adrenoceptor subtypes, the ability of these compounds to antagonize α1-adrenoceptor agonist induced contractile response of aorta (α1D), prostate (α1A) and spleen (α1B) was studied. Aorta, prostate and spleen tissues were isolated from urethane anaesthetized (1.5 gm/kg) male wistar rats. Isolated tissues were mounted in organ bath containing Krebs Henseleit buffer of the following composition (mM): NaCl 118; KCl 4.7; CaCl2 2.5; MgSO4·H2O 1.2; NaHCO3 25; KH2PO4 1.2; glucose 11.5. Buffer was maintained at 37° C. and aerated with a mixture of 95% O2 and 5% CO2. A resting tension of 2 g (aorta) or 1 g (spleen and prostate) was applied to tissues. Contractile response was monitored using a force displacement transducer and recorded on chart recorders. Tissues were allowed to equilibrate for 2 hours. At the end of equilibration period, concentration response curves to norepinephrine (aorta) and phenylephrine (spleen and prostate) were obtained in the absence and presence of the tested compound (at concentrations of 0.1, 1 and 10 μM). Antagonist affinity was calculated and expressed as PKB values in Table 1.

[2] = target: T4, α1B-adrenoceptor (spleen) (Rattus norvegicus, UniProt P15823); experiment: In vitro functional assay, phenylephrine-induced contraction of isolated spleen; format: cell-based
T4 construct: Aorta, prostate and spleen tissues were isolated from urethane anaesthetized (1.5 gm/kg) male wistar rats; from tissue; host or cells: isolated spleen of male Wistar rats
T4 sequence (P15823 1-515): T2 sequence (P15823 1-515)
Excerpt: as §2

α1D-adrenoceptor (aorta) = target: T5, α1D-adrenoceptor (aorta) (Rattus norvegicus, UniProt P23944); experiment: In vitro functional assay, norepinephrine-induced contraction of isolated aorta; format: cell-based; conditions: rat aorta, norepinephrine; read-out: In Vitro Functional Assay (pKB) α1D (converted)
T5 construct: Aorta, prostate and spleen tissues were isolated from urethane anaesthetized (1.5 gm/kg) male wistar rats; from tissue; host or cells: isolated aorta of male Wistar rats
T5 sequence (P23944 1-561): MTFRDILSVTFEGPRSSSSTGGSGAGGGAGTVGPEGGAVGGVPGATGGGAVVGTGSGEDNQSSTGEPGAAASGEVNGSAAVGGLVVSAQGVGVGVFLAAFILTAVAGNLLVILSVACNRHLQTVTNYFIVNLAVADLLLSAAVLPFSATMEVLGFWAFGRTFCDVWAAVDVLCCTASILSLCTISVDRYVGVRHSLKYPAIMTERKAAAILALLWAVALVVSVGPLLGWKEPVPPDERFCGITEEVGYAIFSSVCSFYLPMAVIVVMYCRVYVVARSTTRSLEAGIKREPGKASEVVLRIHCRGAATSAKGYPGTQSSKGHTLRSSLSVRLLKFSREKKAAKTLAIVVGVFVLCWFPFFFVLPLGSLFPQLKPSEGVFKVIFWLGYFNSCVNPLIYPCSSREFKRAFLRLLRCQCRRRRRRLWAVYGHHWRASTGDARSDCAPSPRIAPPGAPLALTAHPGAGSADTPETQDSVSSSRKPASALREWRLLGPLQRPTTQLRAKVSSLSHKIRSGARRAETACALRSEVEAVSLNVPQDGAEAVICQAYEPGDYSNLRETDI
Excerpt: as §2

[3] = rat prostate, phenylephrine, read-out: In Vitro Functional Assay (pKB) α1A (converted)
[4] = rat spleen, phenylephrine, read-out: In Vitro Functional Assay (pKB) α1B (converted)

Row | Ki (α1A-adrenoceptor) [nM] | Ki (α1B-adrenoceptor) [nM] | Kb (α1D-adrenoceptor (aorta)) [nM] | SMILES | melting point [°C] | also measured
1 | – | – | – | O=C1CCC(=O)N1CCCN1CCN(c2ccccn2)CC1 (as salt: hydrochloride) [Compound 4, 1-[4-(2-Pyridyl)piperazin-1-yl]-3-(2,5-dioxopyrrolidin-1-yl)propane] | 261 to 262 | –
2 | – | – | – | O=C1CCCC(=O)N1CCCN1CCN(c2cccc(C(F)(F)F)c2)CC1 (as salt: hydrochloride) [Compound 16, 1-[4-(3-Trifluoromethylphenyl)piperazin-1-yl]-3-(2,6-dioxopiperidin-1-yl)propane] | 228 to 229 | –
3 | – | – | – | O=C1CCCC(=O)N1CCCN1CCN(c2cccc(Cl)c2)CC1 (as salt: hydrochloride) [Compound 20, 1-[4-(3-Chlorophenyl)piperazin-1-yl]-3-(2,6-dioxopiperidin-1-yl)propane] | 214 to 215 | –
4 | – | – | – | O=C1CCC(=O)N1CCCN1CCN(c2cccc(C(F)(F)F)c2)CC1 (as salt: hydrochloride) [Compound 3, 1-[4-(3-Trifluoromethylphenyl)piperazin-1-yl]-3-(2,5-dioxopyrrolidin-1-yl)propane] | 218 to 220 | –
5 | – | – | – | O=C1CCC(=O)N1CCCN1CCN(c2cccc(Cl)c2)CC1 (as salt: hydrochloride) [Compound 5, 1-[4-(3-Chlorophenyl)piperazin-1-yl]-3-(2,5-dioxopyrrolidin-1-yl)propane] | 230 to 231 | –
6 | – | – | – | O=C1CCCC(=O)N1CCCN1CCN(c2ccccn2)CC1 (as salt: hydrochloride) [Compound 19, 1-[4-(2-Pyridyl)piperazin-1-yl)-3-(2,6-dioxopiperidin-1-yl)propane] | 244 to 245 | –
7 | – | – | – | COc1ccccc1N1CCN(CCN2C(=O)CCC2=O)CC1 (as salt: hydrochloride) [Compound 10, 1-[4-(2-Methoxyphenyl)piperazin-1-yl]-2-(2,5-dioxopyrrolidin-1-yl)ethane] | 232 to 234 | –
8 | 1600 | 2350 | 126 | COc1ccccc1N1CCN(CCN2C(=O)CCC2=O)CC1 [Compound 10, 1-[4-(2-Methoxyphenyl)piperazin-1-yl]-2-(2,5-dioxopyrrolidin-1-yl)ethane] | – | Kb [1, 3]: 126 nM; Kb [2, 4]: 200 nM
9 | 9 | 267 | 3.16 | Cc1ccccc1N1CCN(CCCN2C(=O)CCCC2=O)CC1 [Compound 18, 1-[4-(2-Methylphenyl)piperazin-1-yl]-3-(2,6-dioxopiperidin-1yl)propane] | – | Kb [1, 3]: 6.31 nM; Kb [2, 4]: 3160 nM

Row | SMILES | Ki (α1A-adrenoceptor) [nM] | Ki (α1B-adrenoceptor) [nM] | Kb (α1D-adrenoceptor (aorta)) [nM] | melting point [°C] | also measured
10 | O=C1CCC(=O)N1CCCN1CCN(c2ccc(F)cc2)CC1 [Compound 1, 1-[4-(4-Fluorophenyl)piperazin-1-yl]-3-(2,5-dioxopyrrolidin-1-yl)propane] | > 2500 | 1000 | 158 | – | Kb [1]: 79.4 nM; Kb [2]: 100 nM

Reference: patent US6410735B1, “1-(4-arylpiperazin-1-y1)-ω-[N-(α,ω-dicarboximido)]-alkanes useful as uro-selective α1-adrenoceptor blockers” (Ranbaxy Laboratories Limited, priority 1997, dated 2002)
